# Data taken from PMC6944458, “Intracellular and in vivo evaluation of imidazo[2,1-b]thiazole-5-carboxamide anti-tuberculosis compounds” (PLoS ONE, 2020).
# Read-outs that look alike come from different tables or passages of the source.
# Key:
# Type in all cases: cell-based, Mycobacterium tuberculosis
# [1] = test system: Fluoroquinolone resistant strain derived from H37Rv Mtb, gyrA mutant (D94N)
# [2] = test system: Isoniazid resistant strain derived from H37Rv Mtb, katG mutant (Y155* = truncation)
# [3] = test system: Isoniazid resistant strain ACTCC35822
# [4] = test system: Rifampicin resistant strain derived from H37Rv Mtb, ropB mutant (S522L)
# [5] = test system: Rifampicin resistant strain ACTCC35838; test: microbe, parasite or virus in culture; conditions: read-out: MIC RIF res2
compound,measurement,setting,value
"C[C@H]1COc2c(N3CCN(C)CC3)c(F)cc3c(=O)c(C(=O)O)cn1c23 [LEV, Levoflaxacin]",MIC FQ res,[1],91 µM
same,MIC INH res1,[2],3.97 µM
same,MIC INH res2,[3]; ACTCC35822,5.83 µM
same,MIC RIF res1,[4],3.43 µM
same,MIC,[5],3.83 µM
CCc1nc2ccc(Cl)cn2c1C(=O)NCc1ccc(N2CCC(c3ccc(OC(F)(F)F)cc3)CC2)cc1 [Q203],MIC FQ res,[1],0.0058 µM
same,MIC INH res1,[2],0.0074 µM
same,MIC INH res2,[3],0.0038 µM
same,MIC RIF res1,[4],0.0030 µM
same,MIC,[5]; Mycobacterium tuberculosis,0.0056 µM
"Cc1cn2c(C(=O)NCc3ccc(N4CCN(c5ccc(C(F)(F)F)cn5)CC4)c(F)c3)c(C)nc2s1 [ND-11543, N-(3-fluoro-4-(4-(5-(trifluoromethyl)pyridin-2-yl)piperazin-1-yl)benzyl)-2,6-dimethylimidazo[2,1-b]thiazole-5-carboxamide]",MIC FQ res,[1],0.010 µM
same,MIC INH res1,[2],0.012 µM
same,MIC INH res2,[3],0.0047 µM
same,MIC RIF res1,[4],0.0017 µM
same,MIC,[5]; Mycobacterium tuberculosis,0.0057 µM
"CO[C@H]1/C=C/O[C@@]2(C)Oc3c(C)c(O)c4c(O)c(c(/C=N/N5CCN(C)CC5)c(O)c4c3C2=O)NC(=O)/C(C)=C\C=C\[C@H](C)[C@H](O)[C@@H](C)[C@@H](O)[C@@H](C)[C@H](OC(C)=O)[C@@H]1C [RIF, Rifampicin]",MIC FQ res,[1],0.043 µM
same,MIC INH res1,[2],0.027 µM
same,MIC INH res2,[3],0.013 µM
same,MIC RIF res1,[4],3.2 µM
same,MIC,[5]; Mycobacterium tuberculosis,> 50 µM
"Cc1cn2c(C(=O)NCc3ccc(N4CCS(=O)(=O)CC4)c(F)c3)c(C)nc2s1 [ND-11903, N-(4-(1,1-Dioxidothiomorpholino)-3-fluorobenzyl)-2,6-dimethylimidazo[2,1-b]thiazole-5-carboxamide]",MIC FQ res,[1],3.2 µM
same,MIC INH res1,[2],6.5 µM
same,MIC INH res2,[3],5.0 µM
same,MIC RIF res1,[4],2.9 µM
same,MIC,[5]; Mycobacterium tuberculosis,7 µM
"CCc1nc2sc(C)cn2c1C(=O)NCc1ccc(Oc2cccc(C(F)(F)F)c2)nc1 [ND-12024, 6-Ethyl-2-methyl-N-((6-(3-(trifluoromethyl)phenoxy)yridine-3-yl)methyl)imidazo[2,1-b]thiazole-5-carboxamide]",MIC FQ res,[1],0.40 µM
same,MIC INH res1,[2],0.49 µM
same,MIC INH res2,[3],0.22 µM
same,MIC RIF res1,[4],0.047 µM
same,MIC,[5]; Mycobacterium tuberculosis,0.13 µM
"NNC(=O)c1ccncc1 [INH, Isoniazid]",MIC FQ res,[1],0.34 µM
same,MIC INH res1,[2],>200 µM
same,MIC INH res2,[3],>200 µM
same,MIC RIF res1,[4],0.160 µM
same,MIC,[5]; Mycobacterium tuberculosis,0.37 µM
